Counter-ions that a name gives are not always drawn.

Usually Ki stands for the equilibrium dissociation constant of an inhibitor or competing ligand from its target. For orientation: IC50 means the point on the concentration scale where inhibition reaches its midpoint.

One experiment deals with human FLAP (Homo sapiens (Human), UniProt P20292). The experiment can be described thus: FLAP binding assay (HTRF). As to conditions: human FLAP-containing membranes, HTRF format; average of two assay plates, duplicates; read-out: FLAP Binding wild type HTRF Ki. On the procedure: (§1) The ability of the compounds of the present invention to treat a FLAP-mediated disease and/or disorder, or associated symptoms or complications thereof, was determined using the following procedures. Binding assay data represent the average value obtained from two different assay plates, with samples run in duplicate on each plate. Human whole blood assay data represent a single replicate on an assay plate using whole blood from at least one healthy donor.
Chain of human FLAP (P20292 whole entry): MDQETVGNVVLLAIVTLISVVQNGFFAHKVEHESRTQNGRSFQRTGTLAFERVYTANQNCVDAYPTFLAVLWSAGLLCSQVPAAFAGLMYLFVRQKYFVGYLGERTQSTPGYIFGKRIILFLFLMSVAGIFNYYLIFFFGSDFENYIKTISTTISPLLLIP
Data are expressed as a HTRF ratio.
A general note: Time-resolved FRET reads energy transfer from a long-lived donor to a nearby acceptor.
For the compound `Nc1cnc(-c2ccc(C3CCC3)c(Oc3ncccc3C(F)(F)F)c2F)cn1` [Example 121, 5-(4-Cyclobutyl-2-fluoro-3-{[3-(trifluoromethyl)pyridin-2-yl]oxy}phenyl)pyrazin-2-amine], the Ki was 250 nM.
The same measure, in the same setting: in the case of `Cn1nc(Oc2c(C3CCC3)ccc(-c3cnc(N)cn3)c2F)c(C#N)c1C(F)(F)F` [Example 148, 3-[3-(5-Aminopyrazin-2-yl)-6-cyclobutyl-2-fluorophenoxy]-1-methyl-5-(trifluoromethyl)-1H-pyrazole-4-carbonitrile] it was 101 nM.
In the case of `Cc1ccc(-c2cnc(N)cn2)c(F)c1Oc1nccc(N)n1` [Example 315, 2-[3-(5-Aminopyrazin-2-yl)-2-fluoro-6 methylphenoxy]pyrimidin-4-amine], the inhibition constant (Ki) worked out at 1360 nM.
Still for that read-out and setting: in the case of `CC(C)CCc1ccc(-c2cnc(N)cn2)c(F)c1Oc1ncccn1` [Example 322, 5-(2-Fluoro-4-isopentyl-3-(pyrimidin-2 yloxy)phenyl)pyrazin-2-amine] it was 573 nM.
Turning to `Nc1cnc(-c2ccc(C3CCC3)c(OCC3CCCCC3)c2F)cn1` [Example 71, 5-[4-Cyclobutyl-3-(cyclohexylmethoxy)-2-fluorophenyl]pyrazin-2-amine], the inhibition constant Ki was determined as 620 nM.
Take “5-(4-Cyclobutyl-2-fluoro-3- methoxyphenyl)pyridin-2-amine hydrochloride salt [Example 178]”: the Ki was determined as 354 nM.
Consider `COc1c(C2CCCC2)ccc(-c2cnc(N)cn2)c1F` [Example 211, 5-(4-Cyclopentyl-2-fluoro-3-methoxyphenyl)pyrazin-2-amine], for which the Ki amounted to 527 nM.
Same read-out and setting: in the case of `COc1cc(Oc2c(C3CCC3)ccc(-c3ccc(N)nn3)c2F)ncn1` [Example 232, 6-(4-cyclobutyl-2-fluoro-3-((6-methoxypyrimidin-4-yl)oxy)phenyl)pyridazin-3-amine] it was 1590 nM; in that of `CN(C)CCNc1nccc(Oc2c(C3CCC3)ccc(-c3cnc(N)cn3)c2F)n1` [Example 156, N′-{4-[3-(5-Aminopyrazin-2-yl)-6-cyclobutyl-2-fluorophenoxy]pyrimidin-2-yl}-N,N-dimethylethane-1,2-diamine hydrochloride], 2240 nM; in that of `CN(C)CCCOc1c(C2CCC2)ccc(-c2cnc(N)cn2)c1F` [Example 267, 5-{4-Cyclobutyl-3-[3-(dimethylamino)propoxy]-2-fluorophenyl}pyrazin-2-amine], more than 10000 nM.
With `Nc1cnc(-c2ccc(C3CCC3)c(OCC3CCC3)c2F)cn1` [Example 82, 5-[4-Cyclobutyl-3-(cyclobutylmethoxy)-2-fluorophenyl]pyrazin-2-amine], the inhibition constant (Ki) was 304 nM.
As to `Nc1cnc(-c2ccc(C3CCC3)c(OCc3cccnn3)c2F)cn1` [Example 288, 5-[4-Cyclobutyl-2-fluoro-3-(pyridazin-3-ylmethoxy)phenyl]pyrazin-2-amine trifluoroacetic acid salt], the inhibition constant (Ki) turned out to be 365 nM.
The same measure, in the same setting: in the case of `Cn1cncc1COc1c(C2CCC2)ccc(-c2cnc(N)cn2)c1F` [Example 285, 5-{4-Cyclobutyl-2-fluoro-3-[(1-methyl-1H-imidazol-5-yl)methoxy]phenyl}pyrazin-2-amine trifluoroacetic acid salt] it was more than 10000 nM.
Consider `Nc1cnc(-c2ccc(C3CCC3)c(Oc3ccc(C(F)(F)F)c(C(F)(F)F)c3)c2F)cn1` [Example 120, 5-{3-[3,4-Bis(trifluoromethyl)phenoxy]-4-cyclobutyl-2-fluorophenyl}pyrazin-2-amine], for which the inhibitory constant (Ki) was 304 nM.
In the case of `Cn1ccnc1COc1c(C2CCC2)ccc(-c2cnc(N)cn2)c1F` [Example 280, 5-{4-Cyclobutyl-2-fluoro-3-[(1-methyl-1H-imidazol-2-yl)methoxy]phenyl}pyrazin-2-amine trifluoroacetic acid salt], the Ki is more than 10000 nM.
Regarding `Nc1cnc(-c2ccc(C3CCC3)c(OCC(O)CN3CCC(O)C3)c2F)cn1` (mixture of isomers) [Example 308, diastereomeric mixture 1-{3-[3-(5-Aminopyrazin-2-yl)-6-cyclobutyl-2-fluorophenoxy]-2-hydroxypropyl}pyrrolidin-3-ol], the inhibition constant (Ki) is more than 10000 nM.
For the compound `CS(=O)(=O)c1cc(C#N)ccc1Oc1c(C2CCC2)ccc(-c2cnc(N)cn2)c1F` [Example 265, 4-[3-(5-Aminopyrazin-2-yl)-6-cyclobutyl-2-fluorophenoxy]-3-(methylsulfonyl)benzonitrile], the inhibitory constant (Ki) was more than 10000 nM.
Still for that read-out and setting: in the case of `CN(C)CC(O)COc1c(C2CCC2)ccc(-c2cnc(N)cn2)c1F` (racemic) [Example 307, racemic 1-[3-(5-Aminopyrazin-2-yl)-6-cyclobutyl-2-fluorophenoxy]-3-(dimethylamino)propan-2-ol] it was more than 10000 nM; in that of `Nc1cnc(-c2ccc(C3CCC3)c(Oc3ccc(C(F)(F)F)cc3C(F)(F)F)c2F)cn1` [Example 266, 5-{3-[2,4-Bis(trifluoromethyl)phenoxy]-4-cyclobutyl-2-fluorophenyl}pyrazin-2-amine], more than 10000 nM.
The same measure, in the same setting: the result for `Nc1cnc(-c2ccc(Cl)c(OCc3ccccc3)c2F)cn1` [Example 216, 5-[3-(Benzyloxy)-4-chloro-2-fluorophenyl]pyrazin-2-amine] reads 866 nM.
On the same count and under the same terms, the result for `CNCC(O)COc1c(C2CCC2)ccc(-c2cnc(N)cn2)c1F` (racemic) [Example 304, racemic 1-[3-(5-Aminopyrazin-2-yl)-6-cyclobutyl-2-fluorophenoxy]-3-(methylamino)propan-2-ol] reads more than 10000 nM; that for `NCCOc1c(C2CCC2)ccc(-c2cnc(N)cn2)c1F` [Example 294, 5-[3-(2-aminoethoxy)-4-cyclobutyl-2-fluorophenyl]pyrazin-2-amine], 691 nM.
Regarding `COc1c(C2CCC2)ccc(-c2cnc3[nH]cnc3n2)c1F` [Example 182, 5-(4-cyclobutyl-2-fluoro-3-methoxyphenyl)-1H-imidazo[4,5-b]pyrazine], the Ki turned out to be 1940 nM.
Same read-out and setting: the result for `Nc1cnc(-c2ccc(C3CCC3)c(OCC3CCNC3)c2F)cn1` (racemic) [Example 300, racemic 5-[4-Cyclobutyl-2-fluoro-3-(pyrrolidin-3-ylmethoxy)phenyl]pyrazin-2-amine] reads more than 10000 nM; that for `CN(C)CCOc1c(C2CCC2)ccc(-c2cnc(N)cn2)c1F` [Example 268, 5-{4-Cyclobutyl-3-[2-(dimethylamino)ethoxy]-2-fluorophenyl}pyrazin-2-amine], more than 10000 nM; that for `Nc1cnc(-c2ccc(C3CCC3)c(OCC3CCOCC3)c2F)cn1` [Example 264, 5-[4-Cyclobutyl-2-fluoro-3-(tetrahydro-2H-pyran-4-ylmethoxy)phenyl]pyrazin-2-amine], more than 10000 nM.
Take `Nc1cnc(-c2ccc(C3CCC3)c(OCC(O)Cn3ccccc3=O)c2F)cn1` (racemic) [Example 51, racemic 1-(3-(3-(5-Aminopyrazin-2-yl)-6-cyclobutyl-2-fluorophenoxy)-2-hydroxypropyl)pyridin-2(1H)-one]: the Ki turned out to be 324 nM.
Still for that read-out and setting: the result for `Nc1cnc(-c2ccc(C3CCC3)c(OCc3cc(Cl)ccc3C(F)(F)F)c2F)cn1` [Example 43, 5-(3-{[5-Chloro-2-(trifluoromethyl)benzyl]oxy}-4-cyclobutyl-2-fluorophenyl)pyrazin-2-amine] reads 430 nM; that for `Cc1noc(COc2c(C3CCC3)ccc(-c3cnc(N)cn3)c2F)n1` [Example 75, 5-{4-Cyclobutyl-2-fluoro-3-[(3-methyl-1,2,4-oxadiazol-5-yl)methoxy]phenyl}pyrazin-2-amine], 370 nM; that for `Nc1cnc(-c2ccc(C3CCC3)c(OCc3ccccc3)c2)cn1` [Example 217, 5-[3-(Benzyloxy)-4-cyclobutylphenyl]pyrazin-2-amine], 1250 nM.
With `Nc1ccc(-c2ccc(C3CCC3)c(Oc3ncccn3)c2F)nn1` [Example 231, 6-(4-cyclobutyl-2-fluoro-3-(pyrimidin-2-yloxy)phenyl)pyridazin-3-amine], the Ki is 2140 nM.
As for `Oc1c(C2CCC2)ccc(-c2cc3cc[nH]c3nn2)c1F` [Example 221, 6-cyclobutyl-2-fluoro-3-(7H-pyrrolo[2,3-c]pyridazin-3-yl)phenol], the inhibition constant Ki amounted to 593 nM.
With `CC(C)(C)c1ccc(-c2cnc(N)cn2)cc1OCc1ccccc1` [Example 215, 5-[3-(Benzyloxy)-4-tert-butylphenyl]pyrazin-2-amine], the Ki turned out to be 620 nM.

A further experiment concerns leukotriene pathway in human whole blood (LTB4 levels). The experiment can be described thus: Human whole blood assay (LTB4). The experiment is classed as cell-based. The following applies: human whole blood diluted 1:1 in RPMI, stimulated with calcium ionophore A23187; single replicate. On the procedure:
as §1
An in vitro cellular assay was performed using human whole blood collected in heparin-containing tubes, which was used to test the ability of compounds to modulate the leukotriene pathway in human whole blood. The blood was diluted 1:1 in RPMI medium, pre-incubated for 15 min at 37° Celsius with test compounds at various concentrations, and then stimulated with calcium ionophore, A23187 (7 μg/mL), for 30 min at 37° Celsius. The samples were then centrifuged and plasma was removed. The plasma was diluted in assay buffer and LTB4 levels were measured using a commercial kit (Enzo Life Sciences). The concentration of each compound that was required for half-maximal inhibition (modulation) of recombinant enzyme activity (IC50) was calculated by a 4-parameter equation using the program GraphPad Prism (GraphPad software).
Turning to `COC(=O)c1ccc2oc(COc3c(C4CCC4)ccc(-c4cnc(N)cn4)c3F)nc2c1` [Example 274, Methyl 2-{[3-(5-aminopyrazin-2-yl)-6-cyclobutyl-2-fluorophenoxy]methyl}-1,3-benzoxazole-5-carboxylate], the IC50 stood at 160 nM.
The same measure, in the same setting: in the case of `Cc1nc(COc2c(C3CCC3)ccc(-c3cnc(N)cn3)c2F)no1` [Example 70, 5-{4-Cyclobutyl-2-fluoro-3-[(5-methyl-1,2,4-oxadiazol-3-yl)methoxy]phenyl}pyrazin-2-amine] it was 413 nM; in that of `COc1c(C2CCC2)ccc(-c2cnc3c(c2)CCN3)c1F` [Example 198, 5-(4-cyclobutyl-2-fluoro-3-methoxyphenyl)-2,3-dihydro-1H-pyrrolo[2,3-b]pyridine], 2370 nM.
On the same count and under the same terms, the result for `Nc1cnc(-c2ccc(C3CCC3)c(OCc3nc(C4CC4)no3)c2F)cn1` [Example 48, 5-{4-Cyclobutyl-3-[(3-cyclopropyl-1,2,4-oxadiazol-5-yl)methoxy]-2-fluorophenyl}pyrazin-2-amine] reads 175 nM.

These data come from patent US9073876B2, “Flap modulators” (JANSSEN PHARMACEUTICA NV, priority 2013, dated 2015).
